What was measured:
[1] = tested on: anxiété induite par un nouvel environnement; test: Behavioural study in rats: locomotion and rearing counts under anxiety induced by a new environment; format: in vivo, rat; settings: for profil d'action: conclusion in words from the behavioural study in the rat; for d/r: ratio of slope of déplacements to slope of redressements, specificity of effect on anxiety
Description: La 1-isopropyl- et la l-isobutyl-3,7-diméthylxan- thine ont fait l'objet d'une étude comportementale chez le rat en fonction de l'anxiété induite par un nouvel environnement. Chez le rat, l'anxiété se manifeste par des redressements de celui-ci sur ses deux pattes postérieures, tandis que ses déplacements sont l'expression de l'activité locomotrice.
• - L'induction d'un état d'anxiété s'effectue par confrontation de rats mâles "naïfs" Sprague-Dawley (Iffa-Credo, France), pesant 260 à 300 g avec un nouvel environnement constitué par des cages en Macrolon ^0 (30 x 25 cm) qui se situent dans une chambre insonorisée et climatisée (22°C et 50 % d'humidité relative). • - La détermination du nombre de redressements et de déplacements a lieu de façon automatique à partir de cellules photo-électriques à infrarouge qui n'émettent des impulsions électriques que pour les mouvements francs de l'animal et pas pour les mouvements statiques comme ceux de la tête et de la queue et ceci pour des raisons de reproductibilité. Ces cellules photo-électriques quadrillent les cages à deux niveaux différents de façon à distinguer les redressements des déplacements. Le nombre de redressements et de déplacements est compté par les deux séries de cellules photo-électriques, mémorisé et restitué sur une imprimante selon un programme préétabli. • - On administre oralement par intubation oesophagienne le composé testé en solution, l'administration de référence étant constituée par 6 ml/kg d'eau distillée, et ceci 30 minutes avant de placer les animaux dans les cages. Le nombre de redressements et de déplacements est déterminé durant les 15 minutes qui suivent la mise en cage, par rapport à l'effet engendré par l'administration de référence.
• - Le tableau I ci-après montre l'évolution des effets des substances testées sur le nombre de déplacements et de redressements en fonction des doses administrées exprimé en pourcentage des déplacements et redressements comptés pour l'administration de référence. [formula] • - A partir des données précédentes, on établit les droites de régression pour les déplacements et les redressements selon la méthode décrite par Saubrié, P.J. Pharmacol, (Paris) 2 (1971) 457-472, l'équation de ces droites de régression correspondant à la moyenne exprimée en % des performances des références en fonction produit par 10 du logarithme des doses (on ne considère que les doses ne diminuant pas l'activité motrice de plus de 75 %). • - La comparaison des pentes des droites de régression correspondant aux déplacements et aux redressements est effectuée en portant sur un système d'axes orthonormés en abscisse (d) la valeur de la pente de la droite des déplacements et en ordonnée (r) celle de la pente des redressements. Ces valeurs mettent en évidence la relation effet-dose pour une substance donnée. • - On détermine également le rapport de la pente des déplacements sur celle des redressements qui permet de juger de la spécificité d'effet d'une substance donnée sur l'anxiété.
La détermination de l'effet d'une substance est donnée par sa localisation par rapport à la droite d = r de pente = 1. Les substances situées sur cette droite ont un effet semblable sur les redressements et les déplacements. Les substances pour lesquelles la valeur absolue de la pente des redressements est significativement supérieure à celle des déplacements ont une action spécifique sur l'anxiété.

[2] = tested on: enflement de l'oreille chez la souris; test: Delayed cutaneous hypersensitivity test (oxazolone), inhibition of ear swelling; format: in vivo; settings: for % d'inhibition de l'enflement d'oreille: dose 150 mg/kg de poids corporel, ear thickness 24 h after challenge, relative to control
Method: L'activité immunosuppressante a été comparée à celle du cyclophosphamide, médicament immunosuppressant connu, comme inhibiteur de l'enflement de l'oreille chez la souris en réponse à l'agression antigénique dans un test d'hypersensibilisation cutanée retard à la dose de 150 mg/kg.
Le test a été conduit par exemple comme décrit par G.L. Asherson et W. Ptak dans Immunology 15, 405 (1968). Des souris ont été immunisées par application cutanée abdominale de 0,1 ml d'une solution à 3 % d'oxazolone. 7 jours après la sensibilisation, les animaux ont été provoqués par peinture de la même solution sur la peau de l'oreille. On a administré simultanément soit le composé ci-dessus soit le cyclophosphamide à une partie des animaux, les animaux restants servant de contrôle. 24 heures après l'agression, on a mesuré l'épaisseur de l'oreille. L'activité immunosuppressante exprimée en % de l'inhibition de l'enflement de l'oreille par rapport au contrôle est indiquée ci-après : […]

## CC(C)Cn1c(=O)c2c(ncn2C)n(C)c1=O [1-isobutyl-3,7-diméthylxanthine]
[1]
  profil d'action: sédatif non spécifique
[1]; listed as l-isobutyl-3,7-diméthylxanthine
  profil d'action: effet sédatif comparable à celui d'un neuroleptique type

## CC(C)n1c(=O)c2c(ncn2C)n(C)c1=O [1-isopropyl-3,7-diméthylxanthine]
[1]
  d/r: < 1

## CNC1=Nc2ccc(Cl)cc2C(c2ccccc2)=[N+]([O-])C1 [chlordiazépoxide, reference compound]
[1]
  d/r: < 1

## O=P1(N(CCCl)CCCl)NCCCO1 (stereo not drawn) [cyclophosphamide, reference compound]
[2]
  % d'inhibition de l'enflement d'oreille: 73%

## Cn1cnc2c1c(=O)n(Cn1c(=O)c3c(ncn3C)n(C)c1=O)c(=O)n2C [di(3,7-diméthylxanthin-1-yl)méthane]
[2]
  % d'inhibition de l'enflement d'oreille: 55%
[2]; result in words
  activité immunosuppressante: a montré une activité immunosuppressante

## Cn1c(=O)c2[nH]cnc2n(C)c1=O [théophylline, reference compound]
[1]
  profil d'action: psychostimulante et n'a pas d'effet sur l'anxiété
  d/r: > 1
